Experimental data as given in PMC9867442, “Indole Derivatives Bearing Imidazole, Benzothiazole-2-Thione or Benzoxazole-2-Thione Moieties—Synthesis, Structure and Evaluation of Their Cytoprotective, Antioxidant, Antibacterial and Fungicidal Activities” (Molecules, 2023).

Legend:
[1] = system: Bacillus subtilis; experiment: Antibacterial well-diffusion method; type: cell-based; settings: 0.1 mL of compound in DMSO, 48 h, 27 °C
Description: (§1) The antimicrobial properties of compounds were determined against selected bacteria: Micrococcus luteus, Bacillus subtilis, Escherichia coli and Pseudomonas fluorescens which came from the collection of Pure Cultures of the Facility of Microbiology of the Department of Soil Science and Microbiology of the Poznan University of Life Sciences. The well-diffusion method was used to evaluate the antimicrobial properties of compounds. 6 mL each of liquidized broth medium was poured into sterile Petri dishes and allowed to solidify. After which, two sterile glass rings with a diameter of 0.5 cm were placed on the surface of each plate. Then 20 mL each of liquid broth medium containing suspensions of the tested bacterial strains at a density of 10^7 cells/cm3, obtained from 48-h cultures on broth […], was introduced. After the medium solidified, the glass rings were removed with a pencil, obtaining two wells on each plate. 0.1 mL of compound dissolved in pure dimethyl sulphoxide was introduced into one well, and 0.1 mL of pure dimethyl sulphoxide was introduced into the other well, which was as a control. Each compound was tested in four replicates. The plates were incubated for 48 h in a thermostat at 27 °C for M. luteus, B. subtilis and P. fluorescens cultures, and the E. coli culture at 37 °C. At the end of the incubation, the diameters of growth inhibition of the tested strains were measured using calipers.

[2] = system: Escherichia coli; experiment: Antibacterial well-diffusion method; type: cell-based; settings: 0.1 mL of compound in DMSO, 48 h, 37 °C
Description: as §1

[3] = system: Micrococcus luteus; experiment: Antibacterial well-diffusion method; type: cell-based; settings: Micrococus luteus, 0.1 mL of compound in DMSO, 48 h, 27 °C
Description: as §1

[4] = system: Pseudomonas fluorescens; experiment: Antibacterial well-diffusion method; type: cell-based; settings: 0.1 mL of compound in DMSO, 48 h, 27 °C
Description: as §1

[5] = Ferrous ions (Fe2+) chelating activity (ferrozine); settings: 0.1 mg/mL, 10 min, room temperature
Description: Ferrous ions (Fe^2+) chelating activity was evaluated by inhibition of the formation of Fe^2+-ferrozine complex after incubation of the compounds tested with Fe^2+. The Fe^2+-chelating ability of compounds tested was determined by the absorbance of the ferrous ion-ferrozine complex at 562 nm. In brief, 0.1 mg/mL concentration of the compounds tested in 0.2 mL ethyl alcohol were added to a solution of 0.6 mM FeCl2 (0.05 mL). EDTA (ethylenediaminetetraacetic acid) was used as the standard EDTA chelating agent. The reaction was started by the addition of 5 mM ferrozine (0.05 mL) in ethyl alcohol and shaken vigorously immediately. The samples were stored for 10 min at room temperature (~22 °C). Following incubation, the absorbance (Abs) of the solutions was measured at 562 nm in a spectrophotometer. The percentage of inhibition of ferrozine—Fe^2+ complex formation was calculated using the equation: Fe^2+ chelating effect (%) = [1 − (Abs1/Abs0)] × 100% where Abs0 is the absorbance of the sample without the tested compound and Abs1 is the absorbance in the presence of the compound tested. Each sample was made in triplicate, and three independent experiments were performed.

[6] = system: Gloeophyllum trabeum (Gt); experiment: Antifungal agar-plate method; type: cell-based; settings: for inhibition of growth at 0.0001 % / inhibition of growth at 0.001 % / inhibition of growth at 0.01 % / inhibition of growth at 0.1 %: Gloeophyllum trabeum, read-out: Antifungal activity (inhibition of mycelial growth)
Description: (§2) Fungal strains: Coriolus versicolor (Cv), Poria placenta (Pp), Coniophora puteana (Cp) and Gloeophyllum trabeum (Gt) were used as a test organism for the experimental determination of the antifungal activity of 1–11. The fungus were obtained from the collection of the Department of Wood Chemical Technology, Faculty of Forestry and Wood Technology, Poznań, University of Life Sciences, Poland. The fungal growth rates were measured in 90 mm-diameter plastic dishes using the agar-plate method, described by Ważny and Thorton. Five concentrations of gramine and its derivatives in the range of 0.1% to 0.00001% were studied. The compound was applied on the agar (2% agar and 5% malt-extract) prepared on the Petri dish and previously autoclaved. The combination of the compound and fungus was repeated three times. Given sample was centrally inoculated with a 5 mm diameter disc taken from the submargin of 5-day-old malt agar plates. The plates were incubated in darkness at 21 ± 2 °C and 70 ± 5% relative air humidity. The growth duration was determined by the total coverage of the reference plate. The radius of the area covered by the fungus compared with the reference agar plate was employed to calculate the effective doses, ED50, of preservative concentrations retarding the fungal growth rate by 50%.

[7] = system: Poria placenta (Pp); experiment: Antifungal agar-plate method; type: cell-based; settings: for inhibition of growth at 0.0001 % / inhibition of growth at 0.001 % / inhibition of growth at 0.01 % / inhibition of growth at 0.1 %: read-out: Antifungal activity (inhibition of mycelial growth)
Description: as §2

[8] = system: Coniophora puteana (Cp); experiment: Antifungal agar-plate method; type: cell-based; settings: for inhibition of growth at 0.0001 % / inhibition of growth at 0.001 % / inhibition of growth at 0.01 % / inhibition of growth at 0.1 %: Coniophora puteana, read-out: Antifungal activity (inhibition of mycelial growth)
Description: as §2

[9] = system: Coriolus versicolor (Cv); experiment: Antifungal agar-plate method; type: cell-based; settings: for inhibition of growth at 0.0001 % / inhibition of growth at 0.001 % / inhibition of growth at 0.01 % / inhibition of growth at 0.1 %: Trametes versicolor, read-out: Antifungal activity (inhibition of mycelial growth)
Description: as §2

Molecule | Zone of Growth Inhibition [1] | Zone of Growth Inhibition [2] | Zone of Growth Inhibition [3] | Zone of Growth Inhibition [4] | inhibition of growth at 0.0001 % ([6]; concentration 0.0001%) | inhibition of growth at 0.001 % ([6]; concentration 0.001%) | inhibition of growth at 0.01 % ([6]; concentration 0.01%) | inhibition of growth at 0.1 % ([6]; concentration 0.1%) | inhibition of growth at 0.0001 % ([7]; concentration 0.0001%) | inhibition of growth at 0.001 % ([7]; concentration 0.001%) | inhibition of growth at 0.01 % ([7]; concentration 0.01%) | inhibition of growth at 0.1 % ([7]; concentration 0.1%) | inhibition of growth at 0.0001 % ([8]; concentration 0.0001%) | inhibition of growth at 0.001 % ([8]; concentration 0.001%) | inhibition of growth at 0.01 % ([8]; concentration 0.01%) | inhibition of growth at 0.1 % ([8]; concentration 0.1%) | inhibition of growth at 0.0001 % ([9]; concentration 0.0001%) | inhibition of growth at 0.001 % ([9]; concentration 0.001%) | inhibition of growth at 0.01 % ([9]; concentration 0.01%) | inhibition of growth at 0.1 % ([9]; concentration 0.1%) | also measured
3-((2-phenyl-2,5-dihydro-1H-imidazol-1-yl)methyl)-1H-indole [Compound 8] | 3.7 mm | 5 mm | 8.6 mm | 0 mm |  |  |  |  |  |  |  |  |  |  |  |  |  |  |  |  | Chelating activity [5]: 40%; Antifungal activity (inhibition of mycelial growth) ([6]; concentration 0.0001%): 13%; Antifungal activity (inhibition of mycelial growth) ([6]; concentration 0.001%): 18%; Antifungal activity (inhibition of mycelial growth) ([6]; concentration 0.01%): 53%; Antifungal activity (inhibition of mycelial growth) ([6]; concentration 0.1%): 100%; Antifungal activity (inhibition of mycelial growth) ([7]; concentration 0.0001%): 0%; Antifungal activity (inhibition of mycelial growth) ([7]; concentration 0.001%): 17%; Antifungal activity (inhibition of mycelial growth) ([7]; concentration 0.01%): 45%; Antifungal activity (inhibition of mycelial growth) ([7]; concentration 0.1%): 100%; Antifungal activity (inhibition of mycelial growth) ([8]; concentration 0.0001%): 0%; Antifungal activity (inhibition of mycelial growth) ([8]; concentration 0.001%): 0%; Antifungal activity (inhibition of mycelial growth) ([8]; concentration 0.01%): 48%; Antifungal activity (inhibition of mycelial growth) ([8]; concentration 0.1%): 100%; Antifungal activity (inhibition of mycelial growth) ([9]; concentration 0.0001%): 7%; Antifungal activity (inhibition of mycelial growth) ([9]; concentration 0.001%): 13%; Antifungal activity (inhibition of mycelial growth) ([9]; concentration 0.01%): 41%; Antifungal activity (inhibition of mycelial growth) ([9]; concentration 0.1%): 100%
CN(C)Cc1c[nH]c2ccccc12 [Compound 1, gramine, reference compound] | 0 mm | 0 mm | 0 mm | 13 mm | 12% | 12% | 17% | 100% | 14% | 25% | 40% | 100% | 41% | 40% | 51% | 100% | 18% | 22% | 35% | 100% | 
c1ccc2c(Cn3ccnc3)c[nH]c2c1 [Compound 2] | 3.3 mm | 4 mm | 21 mm | 14.7 mm | 20% | 20% | 40% | 100% | 0% | 20% | 47% | 100% | 0% | 0% | 41% | 100% | 0% | 19% | 33% | 100% | 
CCc1nccn1Cc1c[nH]c2ccccc12 [Compound 4, 3-((2-ethyl-1H-imidazol-1-yl)methyl)-1H-indole] | 4.3 mm | 3.8 mm | 8.8 mm | 3 mm | 8% | 11% | 30% | 100% | 16% | 18% | 32% | 100% | 13% | 15% | 37% | 100% | 6% | 13% | 43% | 100% | melting point: 183 to 186 °C
CC(C)c1nccn1Cc1c[nH]c2ccccc12 [Compound 5, 3-((2-isopropyl-1H-imidazol-1-yl)methyl)-1H-indole] | 1.8 mm | 3 mm | 3 mm | 0 mm | 12% | 16% | 17% | 100% | 1% | 6% | 21% | 100% | 13% | 14% | 26% | 100% | 13% | 12% | 43% | 100% | melting point: 183 to 185 °C
CCc1nc(C)cn1Cc1c[nH]c2ccccc12 [Compound 6, 3-((2-ethyl-4-methyl-1H-imidazol-1-yl)methyl)-1H-indole] | 2.4 mm | 3.5 mm | 6 mm | 2.3 mm | 13% | 9% | 27% | 100% | 4% | 0% | 41% | 100% | 40% | 37% | 49% | 100% | 19% | 19% | 44% | 100% | melting point: 186 to 189 °C
Clc1ncn(Cc2c[nH]c3ccccc23)c1Cl [Compound 7, 3-((4,5-dichloro-1H-imidazol-1-yl)methyl)-1H-indole] | 8.7 mm | 4.3 mm | 5 mm | 0 mm | 28% | 51% | 91% | > 90% | 0% | 35% | 78% |  | 0% | 46% | 74% |  | 0% | 23% | 96% | > 90% | Chelating activity [5]: no chelating activity
